# Results: ChEMBL document CHEMBL1153471, “3,5-Diphenylpent-2-enoic acids as allosteric activators of the protein kinase PDK1: structure-activity relationships and thermodynamic characterization of binding as paradigms for PIF-binding pocket-targeting compounds” (J Med Chem, 2009)
# Residue numbers refer to the chain shown, from its start. The source made the active and inactive calls. The calls are words filed in the database; no cut-off is given here.
# How the values were obtained:
# [1] = target: T1, 3-phosphoinositide-dependent protein kinase 1 (Homo sapiens, UniProt O15530); test: Binding affinity to PDK1 (50 to 359) by isothermal titration calorimetry
# T1 sequence (O15530 whole entry): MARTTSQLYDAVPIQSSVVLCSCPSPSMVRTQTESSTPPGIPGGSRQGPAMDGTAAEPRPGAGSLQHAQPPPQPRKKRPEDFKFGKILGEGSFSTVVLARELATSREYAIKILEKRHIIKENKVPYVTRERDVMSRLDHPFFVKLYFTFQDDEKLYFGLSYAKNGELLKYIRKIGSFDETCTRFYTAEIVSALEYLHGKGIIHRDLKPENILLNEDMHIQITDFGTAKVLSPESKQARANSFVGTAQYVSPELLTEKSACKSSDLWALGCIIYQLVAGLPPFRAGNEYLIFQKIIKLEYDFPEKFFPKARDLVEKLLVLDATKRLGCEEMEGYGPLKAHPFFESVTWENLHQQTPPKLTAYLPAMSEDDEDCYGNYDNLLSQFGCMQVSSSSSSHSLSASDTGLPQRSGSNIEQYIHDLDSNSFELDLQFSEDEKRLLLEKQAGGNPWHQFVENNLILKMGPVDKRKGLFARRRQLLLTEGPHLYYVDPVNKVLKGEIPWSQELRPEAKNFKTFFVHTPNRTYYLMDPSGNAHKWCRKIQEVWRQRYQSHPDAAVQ
# [2] = target: T2, 3-phosphoinositide-dependent protein kinase 1 (Homo sapiens) (UniProt O15530)
# T2 sequence (whole entry): T1 sequence (O15530 whole entry)
# [3] = tested on: T3, 3-phosphoinositide-dependent protein kinase 1 (Homo sapiens), O15530 [V127T]; test: Binding affinity to GST-PDK1 V127T mutant expressed in HEK293 cells at 2 uM; format: cell-based
# T3 sequence (whole entry): T1 sequence (O15530 whole entry) with V127T
# [4] = target: T2, 3-phosphoinositide-dependent protein kinase 1 (Homo sapiens); test: Binding affinity to wild type recombinant GST-PDK1 expressed in HEK293 cells at 2 uM; format: cell-based
Kd [1],Kd ([1]; read-out: Kd),Ka [2],Compound,other results
Not Active,–,–,O=C(O)/C=C(\CCc1ccc2ccccc2c1)c1ccccc1,–
–,13.8 µM,–,O=C(O)/C=C(/CCc1ccc2ccccc2c1)c1ccccc1,–
–,10 µM,–,O=C(O)/C=C(/CCc1c[nH]c2ccccc12)c1ccccc1,–
–,13.9 µM,71800 M⁻¹,O=C(O)/C=C(/CCc1ccc(Cl)c(Cl)c1)c1ccccc1,–

# Further lines, the compound ahead of its results:
Compound,Kd [1],Kd ([1]; read-out: Kd),Ka [2],other results
O=C(O)/C=C(\CCC1C=Nc2ccccc21)c1ccccc1 (centres undefined),Not Active,–,–,–
O=C(O)/C=C(\CCc1ccc(Br)cc1F)c1ccccc1,Not Active,–,–,–
O=C(O)/C=C(/CCc1ccc(Br)cc1)c1ccccc1,–,20.9 µM,47800 M⁻¹,–
O=C(O)/C=C(/CCc1ccc(C(F)(F)F)cc1)c1ccccc1,–,10.4 µM,96600 M⁻¹,–
O=C(O)/C=C(/CCc1ccc(Cl)cc1Cl)c1ccccc1,–,5.9 µM,–,–
H-REPRILSEEEQEMFRDFDYIADEC-OH,–,–,–,Activity [3]: Active; Activity [4]: Active
